Assay results as given in EPA's ToxValDB 9.5 (doi:10.2903/j.efsa.2015.4043).
In brackets after ≈: the same amount, converted by molar mass.

Experiments:
Anas platyrhynchos = settings: reproductive
Apis mellifera = settings: acute, mortality
Colinus virginianus = settings: acute, oral, mortality
Cyprinus carpio = settings: acute; duration: 96 hours; mortality
Gammaridae = settings: chronic/long-term; duration: 28 days
Pimephales promelas = settings: chronic/long-term; duration: 32 days; growth

In the case of Cn1cc(C(=O)Nc2cccc3c2[C@@H]2CC[C@H]3C2=C(Cl)Cl)c(C(F)F)n1 [Benzovindiflupyr], the NOEC (Anas platyrhynchos) is reported as 25 mg/kg-day, the LD50 (Apis mellifera; dermal) is reported as over 100 µg/piece and the LD50 (Apis mellifera; oral, unspecified) is reported as over 109 µg/piece. For the same compound, the LC50 (Colinus virginianus; diet) was over 1170 mg/kg-day, the LD50 (Colinus virginianus) was 1320 mg/kg and the LC50 (Cyprinus carpio) was 0.0035 µg/mL (≈ 0.00879 µM). For the same compound, the NOEC (Gammaridae) was 4.1 mg/kg, the LC50 (Neomysis kadiakensis; acute, duration: 96 hours, mortality) was 0.056 µg/mL (≈ 0.141 µM) and the NOEC (Neomysis kadiakensis; chronic/long-term, duration: 28 days, reproduction) was 0.0074 mg/L. For the same compound, the NOEC (Pimephales promelas) was 0.00095 mg/L, the LC50 (Pontoscolex corethrurus; acute, duration: 14 days, mortality) was 406 mg/kg and the NOEC (Pontoscolex corethrurus; chronic/long-term, duration: 8 weeks) was 7.81 mg/kg. It also gave an LD50 (Rattus norvegicus; acute, mortality) of 55 mg/kg, an NOAEL (Rattus norvegicus; acute, neurology) of 10 mg/kg-day and an NOAEL (Rattus norvegicus; chronic) of 6.8 mg/kg-day. The NOAEL (Rattus norvegicus; chronic, duration: 2 years, histopathology: nonneoplastic) was 4.88 mg/kg-day, the NOAEL (Rattus norvegicus; reproduction developmental, M/F, reproduction) was 6.8 mg/kg-day and the NOAEL (Rattus norvegicus; subchronic, duration: 90 days, oral, organ weight) was 7.6 mg/kg-day.
